Measurements: patent US6624140B1, “Synthetic peptides with antimicrobial and endotoxin neutralizing properties for management of the sepsis syndrome” (Academisch Ziekenhuis Bij de Universiteit van Amsterdam …, priority 1997, dated 2003)
No end group written: not given here.

How the values were obtained:
[1] = system: IL-6 production by endotoxin; assay: IL-6 production in diluted whole blood, simultaneous addition of LPS and peptide; type: cell-based, human; settings: LPS 1 ng/ml; concentrations as low as 1 μM; control even at 4-fold higher concentration; heparin 100 I.U/ml
Procedure: FIG. 9. Effect of simultaneous addition of E. coli 0111:B4 LPS and synthetic peptides on IL-6 production in whole blood diluted 1 in 10. Synthetic peptides BP1 or BP2 or the control peptide BPI(85-102) at the concentrations indicated, were added together with E. coli 0111:B4 LPS at 1 ng/ml to diluted whole blood containing heparin at 100 I.U/ml. IL-6 concentration was determined after incubation for 16 h at 37° C. Each value is the mean of triplicate experiments. Controls contained no added peptide.
The endotoxin neutralizing activities of the synthetic peptides of the invention were evaluated by investigating the effect on LPS-stimulated release of the pro-inflammatory cytokines, tumor necrosis factor alpha (TNF-α), interleukin-6 (IL-6) or interleukin-8 (IL-8) in a well characterized in vitro human whole blood bioassay system. In one series of experiments, dilutions of E. coli 0111:B4 LPS from 0.2 to 1 ng/ml were pre-incubated with synthetic peptides at 10 μg/ml concentrations in RPMI medium for 30 min at 20° C. and added to diluted whole blood. Cytokine concentrations in the supernatants were determined after further incubation for 16 h at 37° C. in the presence of 5% CO2 by specific and sensitive ELISA kits (CLB, Amsterdam, The Netherlands). In another series of experiments, the effects of synthetic peptides at concentrations of 2,5, 5 and 10 μg/ml on IL-6 induction by 1 ng/ml 0111:B4 LPS was examined after simultaneous addition of synthetic peptide and LPS to diluted whole blood. […] The control peptide BPI(85-102) was ineffective in reducing cytokine production under these conditions even at a 4-fold higher concentration. This probably reflects the differences in binding affinity for Lipid A of BP1 and BP2 compared with the BPI(85-102) peptide of approximately 5 and 10-fold, respectively. An additional factor which may have influenced binding of the control peptide to endotoxin is the presence of heparin employed as an anti-coagulant at a concentration of 100 I.U/ml in the assay system. […]

[2] = Solid-state Lipid A binding ELISA microplate assay; set-up: species or system Escherichia coli; settings: for apparent binding affinity Ka for Lipid A: biotinylated derivatives, immobilized E. coli D31m4 Lipid A, Scatchard plot
Procedure: FIG. 3. Lipid A binding affinity of the synthetic peptides. Plastic ELISA microtiter plates were coated with purified E. coli D31m4 Lipid A at 1 μg/ml. Incubations were for 20 min with the indicated concentrations of synthetic peptides BP1, BP2 or BP2.1 or control peptide BPI(85-102) followed by streptavidin-HRP at a dilution of 1 in 20 000. Washing steps to remove excess peptide or streptavidin were with 50 mM Tris buffer pH 7.4 containing 0.05% (v/v) Tween 20. Development was with TMB substrate for 10 min. The optical density (O.D) at 450 nm was measured with a microplate reader and values were corrected for non-specific binding which was generally between 5 and 10%. The plotted values are the corrected means of triplicate experiments.
(§1) Double-immunodiffusion of the peptides of the invention against ‘rough’ R-type E. coli D31m4 Re-LPS (List Biological Laboratories Inc., Calif.) or the structurally more complex ‘smooth’ S-type E. coli 0111:B4 LPS (Sigma Chemical Co., Rockford, Ill.) was performed in 0.8% (w/v) agarose containing 50 mM Tris and 0.1% (w/v) Triton X100, pH 7.5. for 16 h at 20° C. PmB and BPI(85-102) were included as control compounds for comparative purposes. The microprecipitates formed were visualized by Coommassie brilliant blue staining. […] Since the amount of precipitate formed is a function of valency, the peptides of the invention appear to be capable of a high degree of intermolecular binding of LPS molecules via the Lipid A moieties. […] A turbidity assay was employed for a direct comparison of the endotoxin-binding activity or avidity of selected synthetic peptides according to the invention using the ‘rough’ serotypes E. coli Re or Rc (J5) LPS. PmB and BPI(85-102) were included as control compounds for comparative purposes. The degree of precipitation of endotoxin by the synthetic peptides according to the invention was determined by measurement of the optical density of insoluble complexes formed at 340 nm (FIG. 2). In most instances optimal complexation of Re or J5 LPS by the synthetic peptides of the invention was evident at a molar ratio of peptide to endotoxin of 1 to 2. The control BPI(85-102) peptide was required at a 4-fold molar excess for approximately the same degree of complexation. […] There was no significant difference between complexation of Re or the structurally more complex J5-LPS by the synthetic peptides. […] The Lipid A binding affinity of the synthetic peptides were directly compared in a solid-state endotoxin-binding assay. Binding characteristics of biotinylated derivatives of the synthetic peptides BP1, BP2, BP2.1 and the control peptide BPI(85-102) were determined on ELISA microtiter plates coated with E. coli D31m4 Lipid A. Specific binding of the biotinylated peptides to the immobilized Lipid A was determined by development with Streptavidin-HRP and 3, 5, 3′, 5′ tetra-methylbenzidine (TMB) substrate and expressed as the corrected optical density at 450 nm. […] The affinity of the novel synthetic peptide BP2 for endotoxin of increasing complexity as well as the effect of plasma on binding was examined with the use of the ELISA microplate assay.

[3] = Turbidity assay of endotoxin complexation; type: binding, Escherichia coli; settings: for avidity order (degree of insoluble peptide-endotoxin complex formation): 2-fold molar excess of synthetic peptide
Procedure: FIG. 2. Endotoxin complexation activity of the synthetic peptides. Peptides at concentrations of 100 to 600 μg/ml were incubated with E. coli D31m4 Re or J5 LPS at 100 μg/ml in a total volume of 100 μl pyrogen-free phosphate buffered saline (PBS) in plastic ELISA microtiter plates for 30 min at 23° C. The turbidity produced by the insoluble peptide-endotoxin complexes was measured at 340 nm. The values represent the mean of three determinations and were corrected for controls containing the same concentrations of endotoxin or peptide.
as §1

Ile-Lys-Ile-Ser-Gly-Lys-Trp-Lys-Ala-Gin-Lys-Arg-Phe-Leu-Lys-Met-Ser-Gly-(Cys) (IKISGKWKAQKRFLKMSGC; listed as Homo sapiens) [BPI(85-102), reference compound]
inhibition of IL-6 production [1]: ineffective | apparent binding affinity Ka for Lipid A [2]: 2e+07 M⁻¹ | avidity order (degree of insoluble peptide-endotoxin complex formation) [3]: BP2.1>BP2.2>BP2>BP1>PmB >BPI(85-102) | molar excess required for approximately the same degree of complexation ([3]; Re or J5 LPS): 4 fold

GRLRKKWKAFKKFLKILAC [BP1]
inhibition of IL-6 production [1]: completely inhibiting | difference in binding affinity for Lipid A compared with BPI(85-102) [2]: approximately 5 fold | apparent binding affinity Ka for Lipid A [2]: 9e+07 M⁻¹ | avidity order (degree of insoluble peptide-endotoxin complex formation) [3]: BP2.1>BP2.2>BP2>BP1>PmB >BPI(85-102)

GKWKLFKKAFKKFLKILAC-OH [BP2, Gly-Lys-Trp-Lys-Leu-Phe-Lys-Lys-Ala-Phe-Lys-Lys-Phe-Leu-Lys-Ile-Leu-Ala-Cys]
inhibition of IL-6 production [1]: completely inhibiting | difference in binding affinity for Lipid A compared with BPI(85-102) [2]: ~10 fold | fold higher affinity for Lipid A compared with Polymyxin B [2]: approximately 20 fold | apparent binding affinity Ka for Lipid A [2]: 1.9e+08 M⁻¹ | avidity order (degree of insoluble peptide-endotoxin complex formation) [3]: BP2.1>BP2.2>BP2>BP1>PmB >BPI(85-102)
